From ChEMBL document CHEMBL1134375, “Synthesis of 2-amino-5-sulfanyl-1,3,4-thiadiazole derivatives and evaluation of their antidepressant and anxiolytic activity” (2001) come the findings set out here.

SMILES strings stand for the structures. Calls of active or inactive are those of the source. The rule behind the calls is not given here. Bounds are passed on as bounds.

The ED50 is the midpoint of the dose-response relation.

Assay [1] is filed under the species Mus musculus. As to the kind of experiment: Maximum percentage decrease in immobility time was determined by despair test in Male albino Swiss mice; NE=no effect. The assay is classed as functional.
The nature of assay [2]: Maximum percentage decrease in immobility time was determined by despair test at a dose of 0.06 mg/kg in Male albino Swiss mice. The format is functional, Mus musculus.
Assay [3] in a line: Maximum percentage decrease in immobility time was determined by despair test at a dose of 0.3 mg/kg in Male albino Swiss mice. The assay is classed as functional, Mus musculus.
Assay [4] in a line: Maximum percentage decrease in immobility time was determined by despair test at a dose of 0.1 mg/kg in Male albino Swiss mice. The format is functional, Mus musculus.
The nature of assay [5]: Maximum percentage decrease in immobility time was determined by despair test at a dose of 10 mg/kg in Male albino Swiss mice. The assay is classed as functional, Mus musculus.
The species named for assay [6] is Mus musculus. Kind of assay: Maximum percentage decrease in immobility time in mice, determined by despair test; NE=no effect. The format is functional.
The nature of assay [7]: Maximum percentage decrease in immobility time was determined by despair test at a dose of 1 mg/kg in Male albino Swiss mice. The format is functional, Mus musculus.
Assay [8] in a line: Maximum percentage decrease in immobility time was determined by despair test at a dose of 0.25 mg/kg in Male albino Swiss mice. The format is functional, Mus musculus.
Assay [9] is described as follows: Maximum percentage decrease in immobility time was determined by despair test at a dose of 5 mg/kg in Male albino Swiss mice. The assay is classed as functional, Mus musculus.
Assay [10] is described as follows: Maximum percentage decrease in immobility time was determined by despair test at a dose of 0.5 mg/kg in Male albino Swiss mice. The format is functional, Mus musculus.
Assay [11] in a line: Percentage decrease in motor activity after intraperitoneal administration of a dose of 300 mg/kg in Male albino Swiss mice. The format is functional, Mus musculus.
Assay [12] has as its system Rattus norvegicus. Kind of assay: Amnesia inducing potential (S1 latency) was determined by passive avoidance test in rat 0.5 mg/kg dose. The assay is classed as functional.
The subject of assay [13] is Rattus norvegicus. Kind of assay: Amnesia inducing potential (S2 latency) was determined by passive avoidance test in rat at 2 mg/kg dose. The assay is classed as functional.
The nature of assay [14]: Percentage decrease in motor activity after intraperitoneal administration of a dose of 600 mg/kg in Male albino Swiss mice. The format is functional, Mus musculus.
Assay [15] has as its system Rattus norvegicus. As to the kind of experiment: Amnesia inducing potential (S1 latency) was determined by passive avoidance test in ratat 1 mg/kg dose. The format is functional.
A short description of assay [16]: Percentage decrease in motor activity after intraperitoneal administration of a dose of 400 mg/kg in Male albino Swiss mice. The format is functional, Mus musculus.
Assay [17] in a line: Percentage decrease in motor activity after intraperitoneal administration of a dose of 500 mg/kg in Male albino Swiss mice. The format is functional, Mus musculus.
Assay [18] relates to Mus musculus. Kind of assay: Ethanol potentiation in mice (intraperitoneal administration). To be noted: ip.
For assay [19], the system named is Rattus norvegicus. As to the kind of experiment: Amnesia inducing potential (S2 latency) was determined by passive avoidance test in rat at 0.5 mg/kg dose. The format is functional.
For assay [20], the system named is Rattus norvegicus. As to the kind of experiment: Amnesia inducing potential (S2 latency) was determined by passive avoidance test in ratin rat at 0 mg/kg dose. The assay is classed as functional.
Assay [21] relates to Mus musculus. As to the kind of experiment: Effective dose determined by rotarod test in mice (intraperitoneal administration). The note with it: ip. On the technique in general: Falling from the rotarod earlier than controls is read as motor impairment.
Assay [22] relates to Rattus norvegicus. Kind of assay: Amnesia inducing potential (S2 latency) was determined by passive avoidance test in rat at 1 mg/kg dose. The format is functional.
Assay [23] has as its system Rattus norvegicus. Kind of assay: Amnesia inducing potential (S1 latency) was determined by passive avoidance test in rat at 0 mg/kg dose. The assay is classed as functional.
Assay [24] has as its system Rattus norvegicus. As to the kind of experiment: Amnesia inducing potential (S1 latency) was determined by passive avoidance test in rat at 2 mg/kg dose. The assay is classed as functional.
Assay [25] concerns Rattus norvegicus. Kind of assay: Percentage decrease in immobility time, after acute administration (intraperitoneally) in rat dosed at 20 mg/kg. The format is functional. The note with it: route intraperitoneal.
The subject of assay [26] is Rattus norvegicus. As to the kind of experiment: Percentage decrease in immobility time, after subchronic administration (intraperitoneally) in rat dosed at 20 mg/kg. The assay is classed as functional. To be noted: route intraperitoneal.
Assay [27] deals with Rattus norvegicus. Kind of assay: Maximum percentage decrease in immobility time was determined after acute intraperitoneal administration of a dose of 5 mg/kg in rat. The assay is classed as functional.
Assay [28] deals with Rattus norvegicus. As to the kind of experiment: Maximum percentage decrease in immobility time was determined after subchronic administration of a dose of 1.25 mg/kg in rat. The assay is classed as functional.
The subject of assay [29] is Rattus norvegicus. Kind of assay: Maximum percentage decrease in immobility time was determined after acute intraperitoneal administration of a dose of 20 mg/kg in rat. The assay is classed as functional.
For assay [30], the system named is Rattus norvegicus. As to the kind of experiment: Maximum percentage decrease in immobility time was determined after subchronic administration of a dose of 2.5 mg/kg in rat. The format is functional.
The test system of assay [31] is Rattus norvegicus. Kind of assay: Maximum percentage decrease in immobility time was determined after subchronic administration of a dose of 5 mg/kg in rat. The assay is classed as functional.
The test system of assay [32] is Rattus norvegicus. Kind of assay: Maximum percentage decrease in immobility time was determined after acute intraperitoneal administration of a dose of 10 mg/kg in rat. The assay is classed as functional.
A short description of assay [33]: Maximum percentage decrease in immobility time was determined by despair test at a dose of 50 mg/kg in Male albino Swiss mice. The assay is classed as functional, Mus musculus.

With `CSc1nnc(N(C)C(C)=O)s1`, in [1], the “Maximum percentage decrease in immobility time” value (from here on “Maximum percentage decrease”) was “inactive”.

As to `CC(=O)Nc1nnc(SCc2ccc(Cl)cc2)s1`, in assay [1], the “Maximum percentage decrease” value is “inactive”. `CCCCCCC(=O)Nc1nnc(SCc2ccccc2)s1`: the “Maximum percentage decrease” value in assay [1] was “inactive”. Turning to `CC(=O)Nc1nnc(SCc2ccccc2)s1`, in assay [2], the Decrease was 22%. `COc1ccc(CSc2nnc(N)s2)cc1` displayed a Decrease in assay [3] of 16%.

For `COc1cc(CSc2nnc(NC(C)=O)s2)cc(OC)c1OC`, the Decrease in assay [4] worked out at 14%. In turn, `CC(C)Sc1nnc(N)s1` came in with a Decrease in assay [5] of 17%. Consider `COc1cccc(CSc2nnc(NC(C)=O)s2)c1`, for which the “Maximum percentage decrease” value in assay [1] was “inactive”. As to `Nc1nnc(SCc2ccc([N+](=O)[O-])cc2)s1`, the NE entry in assay [6] was “inactive”. For `CC(=O)Nc1nnc(SC(C)C)s1`, in [7], the Decrease came out at 19%.

Regarding `CC(=O)N(C)c1nnc(SC(C)C)s1`, the Decrease in assay [8] was determined as 17%. On to `CC(=O)Nc1nnc(SCc2cccc(Cl)c2)s1`, for which the “Maximum percentage decrease” value in assay [1] was “inactive”. Take `CC(=O)Nc1nnc(SCc2ccc(C)cc2)s1`: the “Maximum percentage decrease” value in assay [1] is “inactive”. In turn, `Cc1cccc(CSc2nnc(N)s2)c1` had a Decrease in assay [9] of 17%. Turning to `COc1ccc(CSc2nnc(NC(C)=O)s2)cc1`, the Decrease in assay [10] was 10%.

Take `COc1cccc(CSc2nnc(N)s2)c1`: the Decrease is on record as 19% in [11]; below 68% in assay [14]; below 26% in assay [16]; below 46% in assay [17]; 21% in assay [5]. For the same molecule, the Activity in [12] came to 4.7; in assay [13], 180; in assay [15] it was 5.6; in assay [19], 146; in [20] it was 166; in assay [22] it was 135. Also, the Activity was determined as 5.6 in [23] and 7.2 in assay [24]. Also, the results for the ED50 in [18] and in assay [21] were 162 mg/kg and 534 mg/kg, respectively.

`CC(=O)Nc1nnc(SCc2ccc([N+](=O)[O-])cc2)s1`: in [8], the Decrease worked out at 16%. In the case of `CN(C)CCCN1c2ccccc2CCc2ccccc21` [IMIPRAMINE], the Decrease in assay [25] is below 45%; in [26], below 56%. In the case of `CCCSc1nnc(N)s1`, the NE entry in [6] is “inactive”.

With `Cc1ccc(CSc2nnc(N)s2)cc1`, the “Maximum percentage decrease” value in assay [1] is “inactive”.

In the case of `Nc1nnc(SCc2cccc([N+](=O)[O-])c2)s1`, the “Maximum percentage decrease” value in [1] was “inactive”. Take `Nc1nnc(SCc2ccccc2)s1`: the Decrease in [5] is on record as 35%; in assay [27], below 33%; in [28] it was below 23%; in [29], below 24%; in assay [30], below 31%; in [31], below 28%. In assay [32], the Decrease amounted to 10%. In assay [33], `CSc1nnc(N)s1` had a Decrease of 23%. On to `Nc1nnc(SCc2cccc(Cl)c2)s1`, for which the “Maximum percentage decrease” value in assay [1] was “inactive”. As for `CC(=O)Nc1nnc(SCc2cccc([N+](=O)[O-])c2)s1`, the “Maximum percentage decrease” value in [1] was “inactive”. `COc1cc(CSc2nnc(N)s2)cc(OC)c1OC`: in [1], the “Maximum percentage decrease” value was “inactive”. `Nc1nnc(SCc2ccc(Cl)cc2)s1` displayed a Decrease in assay [4] of 15%. On to `O=C(Nc1nnc(SCc2ccccc2)s1)c1ccccc1`, for which the “Maximum percentage decrease” value in assay [1] is “inactive”. As to `CCC(=O)Nc1nnc(SCc2ccccc2)s1`, the “Maximum percentage decrease” value in assay [1] is “inactive”.
